Reference: patent US20250332167A1, “PHARMACEUTICAL USE OF CDK 4/6 INHIBITOR” (priority 2021, published 2025)
pIC50: −log10 of the molar value. Entries after “also recorded” stand apart in the source; their conditions may differ.

Tests used:
[1] = test system: NCI-H1792; experiment: Proliferation inhibition, non-small cell lung cancer cell line NCI-H1792; type: cell-based; conditions: Homo sapiens, NCI-H1792, 72 h
Experimental: (§1) Sixteen non-small cell lung cancer cell lines, including NCI-H1792, NCI-H1703, NCI-H441, SNU-761, NCI-H1975, NCI-H358, NCI-H1838, NCI-H1915, A549, SK-MES-1, NCI-H292, PC-9, NCI-H460, NCI-H23, NCI-H1581, and HLF, were used for the proliferation inhibition assay of the present invention compound. […] The cell detection equipment used was In Cell Analyzer 2200 (GE Healthcare).
(§2) With 60 μM as the initial concentration, ten points were obtained by serial five-fold dilution.
(§3) Each kind of cell in logarithmic growth phase was inoculated with 4000 cells/100 μl/well into a black transparent bottom 96-well plate and cultured overnight at 37° C. The next day, the plate was taken out, and 20 μL of the prepared sample dilutions was added to each well. The plate was then subjected to treatment at 37° C. for 72 hours. After the treatment period of 72 hours, the plate was taken out and 50 μL of neutral formaldehyde fixative (formaldehyde: PBS=1:9, 50 μl/well) was added to each well. The plate was then fixed at room temperature for 10-30 minutes. Subsequently, the wells were washed twice with 1× PBS (100 μl/well) and treated with 0.2% Triton™-X100 for 5-10 minutes to permeabilize the cells. […] The inhibitory rates of each compound at different concentration points were calculated by using the following formula, and IC50 values were obtained through curve fitting using GraphPad Prism 6.0 software.

[2] = test system: NCI-H1703; experiment: Proliferation inhibition, non-small cell lung cancer cell line NCI-H1703; type: cell-based; conditions: Homo sapiens, NCI-H1703, 72 h
Experimental: as §1, §2, §3

[3] = test system: SNU-761; experiment: Proliferation inhibition, non-small cell lung cancer cell line SNU-761; type: cell-based; conditions: Homo sapiens; SNU-761, 72 h
Experimental: as §1, §2, §3

[4] = test system: NCI-H1975; experiment: Proliferation inhibition, non-small cell lung cancer cell line NCI-H1975; type: cell-based; conditions: Homo sapiens, NCI-H1975, 72 h
Experimental: as §1, §2, §3

[5] = test system: NCI-H358; experiment: Proliferation inhibition, non-small cell lung cancer cell line NCI-H358; type: cell-based; conditions: Homo sapiens, NCI-H358, 72 h
Experimental: as §1, §2, §3

[6] = test system: SK-MES-1; experiment: Proliferation inhibition, non-small cell lung cancer cell line SK-MES-1; type: cell-based; conditions: Homo sapiens, SK-MES-1, 72 h
Experimental: as §1, §2, §3

[7] = test system: PC-9; experiment: Proliferation inhibition, non-small cell lung cancer cell line PC-9; type: cell-based; conditions: Homo sapiens, PC-9, 72 h
Experimental: as §1, §2, §3

[8] = test system: NCI-H460; experiment: Proliferation inhibition, non-small cell lung cancer cell line NCI-H460; type: cell-based; conditions: Homo sapiens, NCI-H460, 72 h
Experimental: as §1, §2, §3

[9] = test system: NCI-H1581; experiment: Proliferation inhibition, non-small cell lung cancer cell line NCI-H1581; type: cell-based; conditions: Homo sapiens, NCI-H1581, 72 h
Experimental: as §1, §2, §3

[10] = test system: Human glioblastoma model (BN2289); experiment: Human glioblastoma xenograft mouse model (BN2289); type: in vivo, BALB/C nude mice; conditions: for Day 21 Tumor Volume / Relative Average Tumor Volume / T/C (relative tumor growth rate) / TGI (relative tumor inhibition rate): day 21
Text: Human glioblastoma model (BN2289, Crown Bioscience Co., Ltd.) tumor fragments were cut into small pieces with a diameter of 2-3 mm and subcutaneously inoculated into the right side of BALB/C nude mice. Tumor growth was monitored regularly, and when the tumors grew to an average volume of approximately 100-200 mm^3, mice were randomly divided into groups based on the tumor size.
Each group consisted of 8 mice and received oral gavage administration once daily for a total of 28 days. Regular observations were made on tumor volume and changes in body weight. Efficacy evaluation was conducted based on the relative tumor growth rate (T/C) and the relative tumor inhibition rate (TGI).
(§4) The formula for calculating tumor volume was: Tumor Volume (mm^3)=½×(a×b^2) (where “a” represents the long diameter and “b” represents the short diameter).
(§5) The relative tumor growth rate (T/C) is the percentage value of the relative tumor volume or weight between the treatment group and the control group at a certain time point. The calculation formula is as follows: • T/C(%)=TRTV/CRTV×100% (TRTV: Average RTV of the treatment group; CRTV: Average RTV of the Vehicle group; RTV=Vt/V0, where V0 is the tumor volume of the animal at the time of grouping and Vt is the tumor volume of the animal after treatment).
(§6) (T and C are the relative tumor volume (RTV) or weight (TW) of the treatment group and control group at a specific time point, respectively).

[11] = test system: NCI-H2228 xenograft; experiment: Human non-small cell lung cancer NCI-H2228 xenograft mouse model; type: in vivo, mice
Text: as §4, §5, §6
Human non-small cell lung cancer cells NCI-H2228 were cultured in RPMI-1640 medium containing 10% fetal bovine serum. Log-phase NCI-H2228 cells were collected, suspended in PBS to an appropriate concentration, and mixed with extracellular matrix gel in a 1:1 ratio for subcutaneous tumor implantation in mice. Twenty female mice were subcutaneously implanted with NCI-H2228 cells on the right side. The cells were suspended in PBS and mixed evenly with matrix gel in a 1:1 ratio (0.1 ml per mouse). When the average tumor volume reached 143 mm^3, the mice were randomly divided into groups based on tumor size. The groups received either the solvent or Compound A from Example 1 (50 mg/kg), administrated by oral intragastric administration once a day for 28 days. Tumor volume and body weight changes were regularly observed. All animals were euthanized on day 50 after cell inoculation. The tumors were weighed and photographed. The calculation methods for tumor volume, relative tumor growth rate (T/C), and tumor growth inhibition rate (TGI) were shown in Example 3.

[12] = 10 mg/kg oral gavage once daily
[13] = 25 mg/kg oral gavage once daily
[14] = 50 mg/kg oral gavage once daily
[15] = 50 mg/kg oral once a day for 28 days, day 50 post-implantation
[16] = 50 mg/kg oral once a day, treatment period

CC1=Nc2c(F)cc(-c3nc(Nc4ccc(C5CCN(C)CC5)cn4)ncc3F)cc2C12CCCC2.O=C(O)/C=C/C(=O)O [Compound A, Fumarate salt of 5-fluoro-4-(7′-fluoro-2′-methylspiro[cyclopentane-1,3′-indol]-5′-yl)-N-(5-(1-methylpiperidin-4-yl)pyridin-2-yl)pyrimidine-2-amine]
pIC50 [1]: 8.52
pIC50 [2]: 8.52
pIC50 [3]: 8.10
pIC50 [4]: 8.00
pIC50 [5]: 7.77
pIC50 [6]: 7.17
pIC50 [7]: 6.74
pIC50 [8]: 6.63
pIC50 [9]: 5.95
Day 21 Tumor Volume ([10]; 5 mg/kg oral gavage once daily): 2038.41 ± 177.46 mm^3
Relative Average Tumor Volume ([10]; 5 mg/kg oral gavage once daily): 13.80
T/C (relative tumor growth rate) ([10]; 5 mg/kg oral gavage once daily): 95.08%
TGI (relative tumor inhibition rate) ([10]; 5 mg/kg oral gavage once daily): 4.92%
Day 21 Tumor Volume [10, 12]: 1900.70 ± 134.20 mm^3
Relative Average Tumor Volume [10, 12]: 12.81
T/C (relative tumor growth rate) [10, 12]: 88.24%
TGI (relative tumor inhibition rate) [10, 12]: 11.76%
Day 21 Tumor Volume [10, 13]: 1302.81 ± 119.99 mm^3
Relative Average Tumor Volume [10, 13]: 8.80
T/C (relative tumor growth rate) [10, 13]: 60.61%
TGI (relative tumor inhibition rate) [10, 13]: 39.39%
Day 21 Tumor Volume [10, 14]: 938.13 ± 52.26 mm^3
Relative Average Tumor Volume [10, 14]: 6.32
T/C (relative tumor growth rate) [10, 14]: 43.56%
TGI (relative tumor inhibition rate) [10, 14]: 56.44%
Drug toxicity / tolerance (body weight) ([10]; 5-50 mg/kg oral gavage once daily, 28 days): no significant toxic side effects
T/C [11, 15]: 64%
TGI [11, 15]: 36%
Tumor relative volume (x ± SEM) [11, 15]: 3.38 ± 0.23
Tumor volume (x ± SEM) [11, 15]: 506.53 mm^3
Tumor volume (x ± SEM) ([11]; 50 mg/kg oral once a day for 28 days, day 50 post-implantation, listed as CompoundA): 506.53 ± 44.73 mm^3
Body weight change [11, 16]: slight weight loss
Tolerability / adverse effects [11, 16]: good tolerability; also recorded: no obvious adverse effects
